Test results published in patent publication US6919424B2, “Binding peptides for carcinoembryonic antigen (CEA)” (Dyax Corp., priority 2000, dated 2005).

Columns and labels:
CEA [1] = molecular target: T1, CEA (Homo sapiens, UniProt P06731); assay: Later evaluation of CEA binding, method not given
T1 construct: purchased
T1 sequence (P06731 35-676): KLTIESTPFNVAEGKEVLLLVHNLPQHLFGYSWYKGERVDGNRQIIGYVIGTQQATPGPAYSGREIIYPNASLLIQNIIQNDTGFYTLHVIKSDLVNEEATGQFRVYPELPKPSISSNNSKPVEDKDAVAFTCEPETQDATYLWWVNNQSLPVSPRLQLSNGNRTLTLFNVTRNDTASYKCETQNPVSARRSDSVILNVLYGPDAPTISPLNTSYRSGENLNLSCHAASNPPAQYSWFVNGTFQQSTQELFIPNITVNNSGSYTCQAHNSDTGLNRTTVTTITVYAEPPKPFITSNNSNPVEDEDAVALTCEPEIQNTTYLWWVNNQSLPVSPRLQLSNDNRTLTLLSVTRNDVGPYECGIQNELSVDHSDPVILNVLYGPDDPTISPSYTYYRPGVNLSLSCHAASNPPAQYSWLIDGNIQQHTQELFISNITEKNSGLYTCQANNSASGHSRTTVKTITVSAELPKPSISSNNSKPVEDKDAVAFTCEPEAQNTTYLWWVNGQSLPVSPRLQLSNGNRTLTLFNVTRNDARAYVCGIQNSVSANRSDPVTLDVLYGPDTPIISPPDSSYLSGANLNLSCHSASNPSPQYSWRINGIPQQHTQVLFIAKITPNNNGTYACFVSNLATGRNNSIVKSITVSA

H6NA3 = molecular target: T2, H6NA3 (Homo sapiens, UniProt P06731); assay: Fluorescence anisotropy direct binding to H6NA3 / NA3; conditions: from KD of Table 7 versus Table 3
T2 construct: H6NA3, consisting of a hexahistidine leader and the N and A3 domains of CEA, was used
T2 sequence (P06731 35-144 limits assumed): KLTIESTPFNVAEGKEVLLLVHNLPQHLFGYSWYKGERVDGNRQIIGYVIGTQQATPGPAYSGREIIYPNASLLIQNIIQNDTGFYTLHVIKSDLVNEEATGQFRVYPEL
T2 sequence (P06731 501-588 limits assumed): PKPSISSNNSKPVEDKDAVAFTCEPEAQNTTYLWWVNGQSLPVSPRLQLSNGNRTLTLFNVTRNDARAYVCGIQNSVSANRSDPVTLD
Description: (§1) Each peptide was also provided with a C-terminal amide-functional linker useful for immobilizing peptides to various chromatographic substrates: -Ala18-Pro19-Gly20-Gly-Glu-Gly-Gly-Gly-Ser-Lys-CONH2 (SEQ ID NO:28). […] Aliquots of each peptide were fluorescently labeled using NHS-fluorescein reacted with the ε-amino side group of the C-terminal lysine.
Dissociation constants were determined using fluorescence anisotropy, through direct binding measurements and competition experiments. In direct binding assays, the concentration of the fluorescein-labeled peptide is held constant and the concentration of H6NA3 is varied. In the competition experiment, the concentration of the fluorescein-labeled peptide and the H6NA3 target are held constant and the concentration of a competitor (cT84.66, unlabeled) is varied. The change in anisotropy is fit to the appropriate equation via nonlinear regression to obtain the apparent Kd.
Aliquots of each peptide were fluorescently labeled using NHS-fluorescein reacted with the ε-amino side group of the C-terminal lysine.
Dissociation constants were determined using fluorescence anisotropy, through direct binding measurements (see Example 6).
as §1, with “Peptides including the binding domain of the CEA binder Isolates were synthesized by solid-phase synthesis. Each” for “Each”
Dissociation constants were determined using fluorescence anisotropy, through direct binding measurements to either NA-3 or CEA in PBS with 0.01% TWEEN 20. […] Isolate 304A-12-H12, previously isolated from Lib2 and assayed for binding, was analyzed in parallel as a control. […] KD standard error values are calculated from the nonlinear regression (SIGMAPLOT, SPSS Science, Chicago, Ill.).

NA3 = molecular target: T3, NA3 (Homo sapiens, UniProt P06731); assay: Phage ELISA with varying amounts of NA3 per well (FIGS. 2, 4, 5); type: binding; conditions: FIG. 2; 100, 50, 10, 5, 1, 0 ng per well
T3 construct: H6NA3, consisting of a hexahistidine leader and the N and A3 domains of CEA, was used
T3 sequence (P06731 35-144 limits assumed): T2 sequence (P06731 35-144 limits assumed)
T3 sequence (P06731 501-588 limits assumed): T2 sequence (P06731 501-588 limits assumed)
Description: The first bar for each sample represents wells each having 100 ng CEA. Successive bars represent 50 ng, 10 ng, 5 ng, 1 ng, and 0 ng CEA per well.
The first bar for each sample represents wells each having 30 ng NA3. Successive bars represent 10 ng, 3 ng, and 0 ng NA3 per well.
Several Isolates gave especially strong ELISA signals and these were tested further.
Several Isolates gave especially strong ELISA signals and these were tested further. […] Isolate 304A-12-H12 (designated DX306) was assayed in parallel as a basis for comparison.

CEA [2] = molecular target: T1, CEA; assay: Fluorescence anisotropy direct binding to CEA; conditions: compared with binding to NA3
Description: Dissociation constants were determined using fluorescence anisotropy, through direct binding measurements to either NA-3 or CEA in PBS with 0.01% TWEEN 20. In direct binding assays, the concentration of the fluorescein-labeled peptide is held constant and the concentration of NA3 is varied. In the competition experiment, the concentration of the fluorescein-labeled peptide and the NA3 target are held constant and the concentration of competitor peptide (from Isolate 12-H12) is varied. The change in anisotropy is fit to the appropriate equation via nonlinear regression to obtain the apparent Kd. Isolate 304A-12-H12, previously isolated from Lib2 and assayed for binding, was analyzed in parallel as a control. Replicate analyses were run for certain binders and are reported to confirm accuracy and precision of measurements. KD standard error values are calculated from the nonlinear regression (SIGMAPLOT, SPSS Science, Chicago, Ill.).

Row | binding to CEA with useful affinity (CEA [1]) | increase in affinity compared to the Isolate G08 peptide (H6NA3) [fold] | phage ELISA binding profile to varying amounts of NA3 (NA3) | Compound | binding to CEA (in words) (CEA [2])
1 | not to bind CEA with useful affinity | – | – | NWRCKLFPRYPYCSSW (Isolate of TN10/9 library found not to bind CEA) [Isolate G01] | –
2 | not to bind CEA with useful affinity | – | – | -RYCEFFPWSLHCGRP (Isolate of TN10/9 library found not to bind CEA) [Isolate B10] | –
3 | – | 8 | do not drop off so quickly | CC(C)C[C@H](NC(=O)[C@@H](NC(=O)[C@H](CC(N)=O)NC(=O)[C@@H]1CSSC[C@H](NC(=O)[C@@H](NC(=O)[C@H](Cc2c[nH]c3ccccc23)NC(=O)[C@H](CC(=O)O)NC(=O)[C@@H](N)CO)C(C)C)C(=O)N[C@@H](CCC(=O)O)C(=O)N[C@@H](Cc2ccc(O)cc2)C(=O)N[C@@H](Cc2ccccc2)C(=O)N[C@@H](CCCCN)C(=O)N[C@@H](CC(N)=O)C(=O)N[C@@H](CCC(N)=O)C(=O)N[C@@H](Cc2c[nH]c3ccccc23)C(=O)N[C@@H](Cc2ccccc2)C(=O)N1)C(C)C)C(=O)N[C@@H](C)C(=O)N1CCC[C@H]1C(=O)NCC(=O)NCC(=O)N[C@@H](CCC(=O)O)C(=O)NCC(=O)NCC(=O)NCC(=O)N[C@@H](CO)C(=O)N[C@@H](CCCCNC(=O)c1ccc2c(c1)C(=O)OC21c2ccc(O)cc2Oc2cc(O)ccc21)C(N)=O [Isolate 304A-12-H12, DWVCEYFKNQWFCNVL] | effectively bound CEA, but not as strongly as they bound NA3
